From ChEMBL document CHEMBL3244053, “Structural modification study of bis(substituted aminoalkylamino)anthraquinones. An evaluation of the relationship of the [2-[(2-hydroxyethyl)amino]ethyl]amino side chain with antineoplastic activity” (1979)
Calls of active or inactive are those of the source. No cut-off for these calls is given here.

What was measured:
B16 [1] = assay: Antineoplastic activity against mouse B16 cells allografted in BDF1 mouse assessed as survival at 30 mg/kg qd for 9 days; assay type: functional, organism-based; set-up: dose 30 mg/kg
B16 [2] = assay: Antineoplastic activity against mouse B16 cells allografted in BDF1 mouse at 30 mg/kg qd for 9 days relative to control; assay type: functional
B16 [3] = assay: Antineoplastic activity against mouse B16 cells allografted in BDF1 mouse assessed as survival at 15 mg/kg qd for 9 days; assay type: functional, organism-based; set-up: dose 15 mg/kg
B16 [4] = assay: Antineoplastic activity against mouse B16 cells allografted in BDF1 mouse at 15 mg/kg qd for 9 days relative to control; assay type: functional
B16 [5] = assay: Antineoplastic activity against mouse B16 cells allografted in BDF1 mouse assessed as survival at 7.5 mg/kg qd for 9 days; assay type: functional, organism-based; set-up: dose 7.5 mg/kg
B16 [6] = assay: Antineoplastic activity against mouse B16 cells allografted in BDF1 mouse at 7.5 mg/kg qd for 9 days relative to control; assay type: functional
B16 [7] = assay: Antineoplastic activity against mouse B16 cells allografted in BDF1 mouse assessed as survival at 3.75 mg/kg qd for 9 days; assay type: functional, organism-based; set-up: dose 3.75 mg/kg
B16 [8] = assay: Antineoplastic activity against mouse B16 cells allografted in BDF1 mouse at 3.75 mg/kg qd for 9 days relative to control; assay type: functional
B16 [9] = assay: Antineoplastic activity against mouse B16 cells allografted in BDF1 mouse assessed as survival at 1.88 mg/kg qd for 9 days; assay type: functional, organism-based; set-up: dose 1.88 mg/kg
B16 [10] = assay: Antineoplastic activity against mouse B16 cells allografted in BDF1 mouse at 1.88 mg/kg qd for 9 days relative to control; assay type: functional
Colon 26 [11] = assay: Antineoplastic activity against mouse Colon 26 cells allografted in CDF1 mouse assessed as survival at 15 mg/kg qd for 9 days; assay type: functional, organism-based; set-up: dose 15 mg/kg
Colon 26 [12] = assay: Antineoplastic activity against mouse Colon 26 cells allografted in CDF1 mouse at 15 mg/kg qd for 9 days relative to control; assay type: functional
Colon 26 [13] = assay: Antineoplastic activity against mouse Colon 26 cells allografted in CDF1 mouse assessed as survival at 7.5 mg/kg qd for 9 days; assay type: functional, organism-based; set-up: dose 7.5 mg/kg
Colon 26 [14] = assay: Antineoplastic activity against mouse Colon 26 cells allografted in CDF1 mouse at 7.5 mg/kg qd for 9 days relative to control; assay type: functional
Colon 26 [15] = assay: Antineoplastic activity against mouse Colon 26 cells allografted in CDF1 mouse assessed as survival at 3.75 mg/kg qd for 9 days; assay type: functional, organism-based; set-up: dose 3.75 mg/kg
Colon 26 [16] = assay: Antineoplastic activity against mouse Colon 26 cells allografted in CDF1 mouse at 3.75 mg/kg qd for 9 days relative to control; assay type: functional
Colon 26 [17] = assay: Antineoplastic activity against mouse Colon 26 cells allografted in CDF1 mouse assessed as survival at 1.88 mg/kg qd for 9 days; assay type: functional, organism-based; set-up: dose 1.88 mg/kg
Colon 26 [18] = assay: Antineoplastic activity against mouse Colon 26 cells allografted in CDF1 mouse at 1.88 mg/kg qd for 9 days relative to control; assay type: functional
L1210 [19] = assay: Antineoplastic activity against mouse L1210 cells allografted in CDF1 mouse assessed as survival at 15 mg/kg qd for 9 days; assay type: functional, organism-based; set-up: dose 15 mg/kg
L1210 [20] = assay: Antineoplastic activity against mouse L1210 cells allografted in CDF1 mouse at 15 mg/kg qd for 9 days relative to control; assay type: functional
L1210 [21] = assay: Antineoplastic activity against mouse L1210 cells allografted in CDF1 mouse assessed as survival at 7.5 mg/kg qd for 9 days; assay type: functional, organism-based; set-up: dose 7.5 mg/kg
L1210 [22] = assay: Antineoplastic activity against mouse L1210 cells allografted in CDF1 mouse at 7.5 mg/kg qd for 9 days relative to control; assay type: functional
L1210 [23] = assay: Antineoplastic activity against mouse L1210 cells allografted in CDF1 mouse assessed as survival at 3.75 mg/kg qd for 9 days; assay type: functional, organism-based; set-up: dose 3.75 mg/kg
L1210 [24] = assay: Antineoplastic activity against mouse L1210 cells allografted in CDF1 mouse at 3.75 mg/kg qd for 9 days relative to control; assay type: functional
L1210 [25] = assay: Antineoplastic activity against mouse L1210 cells allografted in CDF1 mouse assessed as survival at 1.88 mg/kg qd for 9 days; assay type: functional, organism-based; set-up: dose 1.88 mg/kg
L1210 [26] = assay: Antineoplastic activity against mouse L1210 cells allografted in CDF1 mouse at 1.88 mg/kg qd for 9 days relative to control; assay type: functional
P388 [27] = assay: Antineoplastic activity against mouse P388 cells allografted in CDF1 mouse assessed as survival at 20 mg/kg qd for 9 days; assay type: functional, organism-based; set-up: dose 20 mg/kg
P388 [28] = assay: Antineoplastic activity against mouse P388 cells allografted in CDF1 mouse at 20 mg/kg qd for 9 days relative to control; assay type: functional
P388 [29] = assay: Antineoplastic activity against mouse P388 cells allografted in CDF1 mouse assessed as survival at 10 mg/kg qd for 9 days; assay type: functional, organism-based; set-up: dose 10 mg/kg
P388 [30] = assay: Antineoplastic activity against mouse P388 cells allografted in CDF1 mouse at 10 mg/kg qd for 9 days relative to control; assay type: functional
P388 [31] = assay: Antineoplastic activity against mouse P388 cells allografted in CDF1 mouse assessed as survival at 5 mg/kg qd for 9 days; assay type: functional, organism-based; set-up: dose 5 mg/kg
P388 [32] = assay: Antineoplastic activity against mouse P388 cells allografted in CDF1 mouse at 5 mg/kg qd for 9 days relative to control; assay type: functional
P388 [33] = assay: Antineoplastic activity against mouse P388 cells allografted in CDF1 mouse assessed as survival at 2.5 mg/kg qd for 9 days; assay type: functional, organism-based; set-up: dose 2.5 mg/kg
P388 [34] = assay: Antineoplastic activity against mouse P388 cells allografted in CDF1 mouse at 2.5 mg/kg qd for 9 days relative to control; assay type: functional

In the case of O=C1c2ccccc2C(=O)c2c(NCCNCCO)ccc(O)c21, the Activity (B16 [1]) is reported as “Active”, the T/C (B16 [2]) is reported as 326% and the Activity (B16 [3]) is reported as “Active”. For the same molecule, the T/C (B16 [4]) was 271%, the Activity (B16 [5]) was “Active” and the T/C (B16 [6]) was 254%. The Activity (B16 [7]) was “Active”, the T/C (B16 [8]) was 201% and the Activity (B16 [9]) was “Active”. The T/C (B16 [10]) was 157%, the Activity (Colon 26 [11]) was “Active” and the T/C (Colon 26 [12]) was 182%. The Activity (Colon 26 [13]) was “Active”, the T/C (Colon 26 [14]) was 196% and the Activity (Colon 26 [15]) was “Active”. For the same molecule, the T/C (Colon 26 [16]) was 177%, the Activity (Colon 26 [17]) was “Active” and the T/C (Colon 26 [18]) was 162%. For the same molecule, the Activity (L1210 [19]) was “Active”, the T/C (L1210 [20]) was 151% and the Activity (L1210 [21]) was “Active”. The T/C (L1210 [22]) was 193%, the Activity (L1210 [23]) was “Active” and the T/C (L1210 [24]) was 147%. For the same molecule, the Activity (L1210 [25]) was “Active”, the T/C (L1210 [26]) was 136% and the Activity (P388 [27]) was “Active”. For the same molecule, the T/C (P388 [28]) was 178%, the Activity (P388 [29]) was “Active” and the T/C (P388 [30]) was 342%. For the same molecule, the Activity (P388 [31]) was “Active”, the T/C (P388 [32]) was 226% and the Activity (P388 [33]) was “Active”. It also gave a T/C (P388 [34]) of 216%.
